Test results reported in patent publication US7504411B2, “2,3,6-Trisubstituted-4-pyrimidone derivatives” (Mitsubishi Tanabe Pharma Corporation, priority 2003, dated 2009).

target: T1, bovine cerebral TPK1 (Bos taurus, UniProt A0A3Q1MT31); assay: Inhibitory activity against P-GS1 phosphorylation by bovine cerebral TPK1; type: biochemical; settings: 41.7 μM [γ-32P]ATP, 25° C., 2 hours
T1 construct: Phosphorylation by Bovine Cerebral TPK1; from tissue; host or cells: bovine brain (cerebrum)
Procedure: Inhibitory Activity of the Medicament of the Present Invention against P-GS1 Phosphorylation by Bovine Cerebral TPK1
A mixture containing 100 mM MES-sodium hydroxide (pH 6.5), 1 mM magnesium acetate, 0.5 mM EGTA, 5 mM β-mercaptoethanol, 0.02% Tween 20, 10% glycerol, 12 μg/ml P-GS1, 41.7 μM [γ-^32P] ATP (68 kBq/ml), bovine cerebral TPK1 and a compound shown in Table (a final mixture contained 1.7% DMSO deriving from a solution of a test compound prepared in the presence of 10% DMSO) was used as a reaction system. The phosphorylation was started by adding ATP, and the reaction was conducted at 25° C. for 2 hours, and then stopped by adding 21% perchloric acid on ice cooling. The reaction mixture was centrifuged at 12,000 rpm for 5 minutes and adsorbed on P81 paper (Whatmann), and then the paper was washed four times with 75 mM phosphoric acid, three times with water and once with acetone. The paper was dried, and the residual radioactivity was measured using a liquid scintillation counter.

T1 sequence (A0A3Q1MT31 1-419): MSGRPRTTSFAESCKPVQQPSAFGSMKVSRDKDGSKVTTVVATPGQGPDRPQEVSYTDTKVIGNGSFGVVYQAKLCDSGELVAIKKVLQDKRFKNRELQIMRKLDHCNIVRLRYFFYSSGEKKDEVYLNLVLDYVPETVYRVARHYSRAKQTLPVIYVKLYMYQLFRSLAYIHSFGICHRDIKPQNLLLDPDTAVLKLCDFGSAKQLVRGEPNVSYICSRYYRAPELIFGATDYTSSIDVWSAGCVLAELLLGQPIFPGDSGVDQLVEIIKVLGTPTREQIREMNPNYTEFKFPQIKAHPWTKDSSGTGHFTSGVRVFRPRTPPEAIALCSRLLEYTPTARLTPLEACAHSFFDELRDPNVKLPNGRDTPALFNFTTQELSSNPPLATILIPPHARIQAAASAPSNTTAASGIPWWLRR

| IC50 | SMILES |
| --- | --- |
| 216 nM | COc1cc(F)ccc1C1CN(c2nc(-c3ccncn3)cc(=O)n2C)CCN1Cc1ccccc1 (stereo not drawn) [YA0864] |
| 230 nM | Cn1c(N2CCCC(C#N)(c3ccccc3)C2)nc(-c2ccncc2)cc1=O (stereo not drawn) [XB80] |
| 18 nM | Cn1c(N2CCNC(c3ccccc3)C2)nc(-c2ccncc2)cc1=O (stereo not drawn) [XA361] |
